Results from US20130131128A1, “ASSOCIATION OF XANTHINE OXIDASE INHIBITORS AND ANGIOTENSIN II RECEPTOR ANTAGONISTS AND USE THEREOF” (MENARINI INTERNATIONAL OPERATIONS LUXEMBOURG S.A., priority 2010, published 2013).

Columns and labels:
[1] = system: spontaneously hypertensive rat (SHR); assay: Plasma uric acid (uricemia) in potassium oxonate-induced hyperuricemia in spontaneously hypertensive rats; assay type: in vivo; details: for Uricemia: SHR + K oxonate 250 mg/kg IP, 4 hours after last dose; for Δ Uricemia: SHR + K oxonate, difference vs Control + K oxonate; for Effect on hyperuricemia values (in words): oral, one week before potassium oxonate, 1-3-10 mg/kg, SHR
Protocol: (§1) Pharmacological activity of febuxostat and olmesartan medoxomil, alone or in association, was assessed in an experimental model of hyperuricemia in spontaneously hypertensive rat (SHR, Harlan Laboratories, Udine, Italy). Systolic pressure (SBP) was measured in non-anesthesized animals by means of a tail cuff sphygmomanometer (Blood Pressure Analysis System BP-2000, Visitech Systems, USA) equipped with an automatic system for data acquisition and processing.
(§2) All animals were preconditioned daily for 2 weeks to accustom them to instrumental measuring of the pressure before starting the test. Hyperuricemia was induced with administration of potassium oxonate (250 mg/kg IP, 2 hours after the last dose of drugs and 2 hours before the test), an uricase inhibitor capable of inducing experimental hyperuricemia. Plasma levels of uric acid were measured with a standard colorimetric enzymatic method. Febuxostat and/or olmesartan were administered orally once per day for 7 days, by gavage, at the doses of 1-3-10 mg/kg.
(§3) Parameters measured in conscious rats were systolic pressure (SBP) and plasma uric acid/urate levels (uricemia), as well as basal values, both after one week of treatment and 2 hours after administration of potassium oxonate. Blood was collected from a tail vein.
(§4) Uricemia and systolic pressure values were recorded 4 hours after the last dose of drugs or vehicle. Potassium oxonate (250 mg/kg IP) was administered 2 ore before the test. Each value is the average of 7-13 tests.

[2] = system: spontaneously hypertensive rat (SHR); assay: Systolic pressure (SBP) by tail cuff sphygmomanometer in conscious spontaneously hypertensive rats; assay type: in vivo; details: for SBP / Δ SBP: SHR + K oxonate; for SBP: 4 hours after last dose; for Δ SBP: difference vs Control + K oxonate; for Effect on systolic pressure (in words): 1-3-10 mg/kg per os, daily for 1 week, SHR
Protocol: as §1, §2, §3, §4

hyperuricemia = details: clinical studies; cited from earlier work
30 hypertensive subjects = details: monotherapy, only teenagers; cited from earlier work
[3] = 1 mg/kg day per os for one week
[4] = 3 mg/kg day per os for one week
[5] = 10 mg/kg day per os for one week

Structure (SMILES) | Uricemia [1, 3] [mg/dL] | Δ Uricemia [1, 3] [mg/dL] | Uricemia [1, 4] [mg/dL] | Δ Uricemia [1, 4] [mg/dL] | Uricemia [1, 5] [mg/dL] | Δ Uricemia [1, 5] [mg/dL] | Effect on hyperuricemia values (in words) [1] | SBP [2, 3] [mmHg] | Δ SBP [2, 3] [mmHg] | SBP [2, 4] [mmHg] | Δ SBP [2, 4] [mmHg] | SBP [2, 5] [mmHg] | Δ SBP [2, 5] [mmHg] | Effect on systolic pressure (in words) [2] | Reduction of hyperuricemia compared with allopurinol (in words) (hyperuricemia) | Anti-hypertensive effect (in words) (30 hypertensive subjects)
Cc1nc(-c2ccc(OCC(C)C)c(C#N)c2)sc1C(=O)O [Febuxostat, febuxostat] | 1.02 ± 0.07 | -0.15 | 0.78 ± 0.06 | -0.39 | 0.49 ± 0.05 | -0.68 | reduced in a significant and dose-dependent manner the hyperuricemia values | 234 ± 19 | −5 | 229 ± 24 | −10 | 228 ± 21 | −11 | slight inhibitory effect on systolic pressure | reduce hyperuricemia more effectively than allopurinol | 
CCCc1nc(C(C)(C)O)c(C(=O)OCc2oc(=O)oc2C)n1Cc1ccc(-c2ccccc2-c2nnn[nH]2)cc1 [Olmesartan, olmesartan medoxomil] | 1.16 ± 0.11 | -0.01 | 1.10 ± 0.12 | -0.07 | 1.08 ± 0.07 | -0.09 | weakly active | 217 ± 14 | −22 | 202 ± 10 | −37 | 180 ± 11 | −59 | reduced systolic pressure in a dose-dependent manner |  | 
Oc1ncnc2[nH]ncc12 [allopurinol] |  |  |  |  |  |  |  |  |  |  |  |  |  |  |  | has shown an anti-hypertensive effect
